Assay results published in patent publication US20210015793A1, “COMPOUNDS FOR TREATING CNS- AND NEURODEGENERATIVE DISEASES” (ETH ZURICH, priority 2018, published 2021).

Experiments:
Tg2576 AD mice = test: SDS-insoluble hippocampal Abeta1-40 and Abeta1-42 by sandwich ELISA in Tg2576 mice; format: in vivo, mouse; details: 18 months-old Tg2576 mice, 6 months of treatment, 8 mg/kg/d in drinking water
Protocol: (§1) For quantitative analysis of SDS-insoluble hippocampal contents of Abeta1-40 and Abeta1-42, hippocampi were dissected out from brains isolated on ice from 18-month-old Tg2576 mice without and with treatment for 6 months with Compound-1 and Compound-4. Isolated hippocampi were pulverized under liquid nitrogen, and SDS-insoluble Abeta peptides were extracted by serial extraction in 14 microL/mg wet weight of Tris buffer (50 mM Tris, 200 nM NaCl, 2 mM EDTA, pH 7.2, supplemented with 1× protease inhibitors/1× phosphatase inhibitors), followed by extraction with Triton X-100-containing buffer (Tris extraction buffer with 0.1% Triton X-100), and followed by extraction with 2% SDS. The remaining pellet was extracted with formic acid (70% formic acid in Tris buffer supplemented with 1× protease inhibitors/1× phosphatase inhibitors). The resulting formic-acid extract was neutralized with 1 M Tris buffer, pH 11, and used for quantitative determination of Abeta1-40 and Abeta1-42 by sandwich ELISA relative to a standard curve according to the protocol of the manufacturer (KHB3481 and KHB3441, Thermo Fisher Scientific, Waltham, Mass., USA).
as §1, with “mM” for “nM”, “and with” for “relative to”

[1] = Serum concentration by HPLC in dogs after oral dosing; format: in vivo, dog; details: for steady-state serum concentrations of Compound-1 and Compound-1F compared: 28 days once daily oral dosing, 24 h after the last dose; for oral bioavailability: oral treatment; for dog dose roughly equivalent to 8 mg/kg/day in mice (by steady-state serum concentration): mice given compound in drinking water, dogs 28 days once daily oral dosing
Protocol: (§2) Dog serum concentrations of Compound-1, Compound-1F and Compound-4 were determined with serum isolated from the blood of German shepherd dogs (age: 8-9 months) taken at different time points (2 h, 4 h, 6 h, 8, 10 h, 24 h) after oral drug intake. The steady-state serum concentrations of Compound-1, Compound-1F and Compound-4 were determined in mice with blood isolated at the end of the study by cardiac puncture. Serum proteins were removed by acetonitrile precipitation, and compounds were extracted by chloroform before separation on an HPLC-C18 column (Poroshell 120 EC-C18, Agilent) with an HPLC system (Agilent 1100 Series) and detection at OD 280 nm, for Compound-1 and Compound-1F. Detection of Compound-4 was performed at OD 310 nm. The same extraction method was also used to determine Compound-1F in the serum of healthy human research participants. Dog hematology and biochemical parameters were determined by the Center of Applied Analytical and Veterinary Studies, Cairo, Egypt. ECG and blood pressure were measured by Dr. Mohamed Elsaed, Electrocardiography Unit, Faculty of Veterinary Medicine, Cairo University. The study was approved by the ethical committee of the Center of Applied and Veterinary Studies, Cairo, Egypt. Clinical laboratory parameters of human research participants were determined by the Rabaa El Adaweya Medical Central Hospital, Cairo, Egypt.

[2] = 28-day repeated oral dosing safety in German shepherd dogs; format: in vivo, dog; details: for sedation / ECG: P-R interval, QRS interval and Q-T interval before vs after treatment / blood levels of AST, ALT, ALP, BUN and fasting blood glucose / hematologic parameters (Hb, HCT, RBCs, MCV, MCHC) before vs after treatment / total number of white blood cells / systolic and diastolic blood pressure / heart rate / tolerability: dogs; for ECG: P-R interval, QRS interval and Q-T interval before vs after treatment / blood levels of AST, ALT, ALP, BUN and fasting blood glucose / hematologic parameters (Hb, HCT, RBCs, MCV, MCHC) before vs after treatment / total number of white blood cells: once daily 60, 120 and 200 mg for 28 days; for systolic and diastolic blood pressure: once daily 60, 120 and 200 mg/d for 28 days; for heart rate: repeated oral dosing for 28 days; for tolerability: therapeutic dose range; for body weight: male and female dogs, once daily 20, 60, 120 and 200 mg/d for 28 days
Protocol: as §2

male B6 mice = test: Aging-induced deterioration of male sperm quality in B6 mice; format: in vivo, mouse; details: 18-month-old male B6 mice, 15 months treatment
[3] = dogs, oral gavage, single dose of 60 mg

| Structure (SMILES) | hippocampal content of Abeta1-40 (Tg2576 AD mice) | hippocampal content of Abeta1-42 (Tg2576 AD mice) | steady-state serum concentrations of Compound-1 and Compound-1F compared ([1]; dogs) | oral bioavailability ([1]; dogs) | dog dose roughly equivalent to 8 mg/kg/day in mice (by steady-state serum concentration) [1] | sedation ([2]; daily dose of 120 mg/d) | sedation ([2]; highest dose of 200 mg) | ECG: P-R interval, QRS interval and Q-T interval before vs after treatment [2] | blood levels of AST, ALT, ALP, BUN and fasting blood glucose [2] | hematologic parameters (Hb, HCT, RBCs, MCV, MCHC) before vs after treatment [2] | total number of white blood cells [2] | systolic and diastolic blood pressure [2] | heart rate [2] | tolerability [2] | body weight [2] | aging-induced epididymal degeneration (H&E sections of cauda epididymis) (male B6 mice) | also measured |
| --- | --- | --- | --- | --- | --- | --- | --- | --- | --- | --- | --- | --- | --- | --- | --- | --- | --- |
| O=C(C1=C(O)C(c2ccccc2)N(c2ccc3c(c2)OCO3)C1=O)C1CC1 (centres unmarked) [Compound-1, 1-(1,3-benzodioxol-5-yl)-4-(cyclopropane-carbonyl)-3-hydroxy-2-phenyl-2H-pyrrol-5-one] | significantly decreased | significantly decreased | comparable | good oral bioavailability | ~0.7 mg/kg day | no sedation | showed sedation | not significantly different | did not significantly alter | not significantly different | not altered | did not significantly change systolic and diastolic blood pressure | did not significantly affect heart rate | excellent tolerability | did not significantly change body weight | prevented | dose dependence of peak serum concentration ([1]; dogs, 28 days repeated once daily dosing, 20, 60, 200 mg/day): dose-dependent increase in the peak serum concentration; time to peak serum concentration ([1]; dogs, day 28 of repeated once daily dosing, 20, 60 and 200 mg/day): 4 h; peak serum concentration [1, 3]: 2 µg/mL; time to peak serum concentration [1, 3]: 4 h; time to peak serum concentration ([1]; dogs, oral gavage, single dose of 200 mg): 6 h |
| O=C(C1=C(O)C(c2ccc(F)cc2)N(c2ccc3c(c2)OCO3)C1=O)C1CC1 (centres unmarked) [Compound-1F, 1-(1,3-Benzodioxol-5-yl)-4-(cyclopropanecarbonyl)-2-(4-fluorophenyl)-3-hydroxy-2H-pyrrol-5-one] | significantly decreased | significantly decreased | comparable | good oral bioavailability | ~0.7 mg/kg day | no sedation | showed sedation | not significantly different | did not significantly alter | not significantly different | not altered | did not significantly change systolic and diastolic blood pressure | did not significantly affect heart rate | excellent tolerability | did not significantly change body weight | prevented | pharmacokinetic profile compared to Compound-1 ([1]; dogs, oral): slower on-rate |
